Test results from publication PMC4920673, “Nitroimidazole carboxamides as antiparasitic agents targeting Giardia lamblia, Entamoeba histolytica and Trichomonas vaginalis” (European Journal of Medicinal Chemistry, 2016).
≈ marks a conversion by molar mass, not a printed value. Like-named read-outs stand apart in the source and are kept apart here.

What was measured:
G. lamblia WB (MtzS) = assay: ATP-bioluminescence growth/survival EC50 assay, G. lamblia WB; settings: for S.I (CC50/EC50): average cytotoxicity against HEK293 and HepG2 / G. lamblia WB activity
Protocol: (§1) Compounds were screened for antiparasitic activity using an ATP-bioluminescence based assay for cell growth and survival, [24]. […] Viable cell numbers were determined in triplicate using the CellTiter-Glo Luminescent Cell Viability Assay.

E. histolytica HM1:IMSS = assay: ATP-bioluminescence growth/survival EC50 assay, E. histolytica; format: cell-based, Entamoeba histolytica; settings: Entamoeba histolytica
Protocol: as §1

[1] = Resazurin cytotoxicity assay, HepG2; format: cell-based, Human; settings: human, 24 h, highest concentration 100 μM, n = 3, read-out: CC50 Hep G2
Protocol: (§2) Human HEK293 and HepG2 cells were seeded at 3000 and 5000 cells per well in 384-well plates, respectively. Cells were cultured in Dulbecco's modified Eagle's medium with 10% FBS for 24 h at 37 °C, 5% CO2. A dilution series of compounds was added, with the highest concentration of 100 μM. […] After 24 h incubation with the compounds, 5 μM resazurin was added into each well and incubated at 37 °C for 2 h. As a negative control, 1% Triton X-100 was added into the culture media to lyse all of the cells. The fluorescence intensity was read using Polarstar Omega with excitation/emission 560/590 nm. Data were analysed with GraphPad Prism 6 software (La Jolla, California USA) to calculate CC50 values.

G. lamblia 713M3 (MtzR) = assay: ATP-bioluminescence growth/survival EC50 assay, G. lamblia 713M3; format: cell-based, Giardia lamblia; settings: Giardia duodenalis
Protocol: as §1

[2] = tested on: C. difficile NAP1/027 (ATCC BAA-1803); assay: Broth microdilution MIC assay, C. difficile NAP1/027; format: cell-based, Clostridium difficile; settings: Clostridioides difficile, ATCCBAA1803; strain NAP1/027
Protocol: Clostridium difficile strains (630, ATCC BAA-1382 and NAP1/027, ATCC BAA-1803) were maintained as previously described. The minimum inhibition concentration (MIC) was determined according to the CLSI Methods with modifications in broth and inoculum for C. difficile, [25], [26]. Briefly, compounds and control antibiotics were serially diluted two-fold in 96-well plates (Non-binding surface, Corning). The plates were placed in a Coy anaerobic chamber (5% H2, 10% CO2, 85% N2) overnight to reduce the medium. C. difficile bacteria from BHIS(TA) agar plates were cultured anaerobically in BHIS at 37 °C overnight. […]. Compound concentration ranged from 64 to 0.03 μg/mL. An antibiotic standard, a positive growth control (no compound) and a sterility control (no bacteria) were included on each 96 well plate. Plates were covered and incubated at 37 °C for 24 h. MICs for each strain were determined as the lowest concentration without visible growth. Variance between replicates was typically within one 2-fold dilution. Median MICs are reported with a range given when the median MIC was between two tested concentrations.

T. vaginalis F1623 = assay: ATP-bioluminescence growth/survival EC50 assay, T. vaginalis; format: cell-based, Trichomonas vaginalis; settings: Trichomonas vaginalis
Protocol: as §1

[3] = tested on: C. difficile 630 (ATCC BAA-1382); assay: Broth microdilution MIC assay, C. difficile 630; format: cell-based, Clostridium difficile; settings: Clostridioides difficile, ATCCBAA1382; strain 630, MtzS; median of n = 4; read-out: MIC C. difficile 630
Protocol: Clostridium difficile strains (630, ATCC BAA-1382 and NAP1/027, ATCC BAA-1803) were maintained as previously described. The minimum inhibition concentration (MIC) was determined according to the CLSI Methods with modifications in broth and inoculum for C. difficile, [25], [26]. Briefly, compounds and control antibiotics were serially diluted two-fold in 96-well plates (Non-binding surface, Corning). […] C. difficile bacteria from BHIS(TA) agar plates were cultured anaerobically in BHIS at 37 °C overnight. […] An antibiotic standard, a positive growth control (no compound) and a sterility control (no bacteria) were included on each 96 well plate. Plates were covered and incubated at 37 °C for 24 h. MICs for each strain were determined as the lowest concentration without visible growth. […] Median MICs are reported with a range given when the median MIC was between two tested concentrations.

[4] = Resazurin cytotoxicity assay, HEK293; format: cell-based, Human; settings: human, 24 h, highest concentration 100 μM, n = 3, read-out: CC50 HEK 293
Protocol: as §2

[5] = Giardia duodenalis, read-out: EC50 G. lamblia WB, MtzS strain WB, minimum n = 3
[6] = Giardia duodenalis, read-out: pEC50 ± SE G. lamblia WB, MtzS strain WB (converted)
[7] = read-out: EC50 E. histolytica HM1:IMSS
[8] = read-out: pEC50 ± SE E. histolytica HM1:IMSS (converted)
[9] = read-out: EC50 G. lamblia 713M3, MtzR strain 713M3, minimum n = 3
[10] = read-out: pEC50 ± SE G. lamblia 713M3, MtzR strain 713M3 (converted)
[11] = read-out: EC50 T. vaginalis F1623, MtzS, minimum n = 3
[12] = read-out: pEC50 ± SE T. vaginalis F1623, MtzS (converted)

Compound	EC50 (G. lamblia WB (MtzS); [5]) [µM]	EC50 (G. lamblia WB (MtzS); [6]) [µM]	S.I (CC50/EC50) (G. lamblia WB (MtzS))	EC50 (E. histolytica HM1:IMSS; [7]) [µM]	EC50 (E. histolytica HM1:IMSS; [8]) [µM]	CC50 at 24 h ([1]; HepG2 cells) [µM]	EC50 (G. lamblia 713M3 (MtzR); [9]) [µM]	EC50 (G. lamblia 713M3 (MtzR); [10]) [µM]	MIC [2] [µg/mL]	EC50 (T. vaginalis F1623; [11]) [µM]	EC50 (T. vaginalis F1623; [12]) [µM]	MIC [3] [µg/mL]	CC50 at 24 h ([4]; HEK293 cells) [µM]	EC50 (G. lamblia WB (MtzS); read-out: EC50 G. lamblia WB, MtzS strain WB, minimum n = 3) [µM]	CC50 at 24 h [1] [µM]	CC50 at 24 h [4] [µM]
CC(NC(=O)c1ncc([N+](=O)[O-])n1C)c1ccc(F)cc1 (stereo not shown) [Compound 8d, N-(1-(4-fluorophenyl)ethyl)-1-methyl-5-nitro-1H-imidazole-2-carboxamide]	2.9	2.88	>34	10	10	> 100	1.9	1.86	> 64	3.8	3.8	64 (≈ 219 µM)	> 100			
Cc1ccc(CCNC(=O)c2ncc([N+](=O)[O-])n2C)cc1 [Compound 8e, 1-methyl-N-(4-methylphenethyl)-5-nitro-1H-imidazole-2-carboxamide]	2.8 to 3.5	2.82	>36	13	12.9	> 100	> 20	> 20	> 64		8.13	> 64	> 100	2.8		
NC(=O)c1nc([N+](=O)[O-])cn1Cc1ccc(F)cc1 [Compound 13a, 1-(4-fluorobenzyl)-4-nitro-1H-imidazole-2-carboxamide]	> 50	> 50.1		> 50	> 50.1							> 64			> 100	> 100
NC(=O)c1nc([N+](=O)[O-])cn1Cc1ccc(OC(F)(F)F)cc1 [Compound 13b, 4-nitro-1-(4-(trifluoromethoxy)benzyl)-1H-imidazole-2-carboxamide]	4.1	4.07	>22	> 25	> 25.1							> 64			> 100	> 100
NC(=O)c1nc([N+](=O)[O-])cn1Cc1cccc(OC(F)(F)F)c1 [Compound 13c, 4-nitro-1-(3-(trifluoromethoxy)benzyl)-1H-imidazole-2-carboxamide]	8.4	8.32	>12	> 50	> 50.1							> 64			> 100	> 100
Cc1ccc(CCn2cc([N+](=O)[O-])nc2C(N)=O)cc1 [Compound 13d, 1-(4-methylphenethyl)-4-nitro-1H-imidazole-2-carboxamide]	> 50	> 50.1		> 50	> 50.1	> 100			> 64			> 64	> 100			
NC(=O)c1nc([N+](=O)[O-])cn1Cc1ccccn1 [Compound 13e, 4-nitro-1-(pyridin-2-ylmethyl)-1H-imidazole-2-carboxamide]	27	26.9	>3.7	> 50	> 50.1	> 100			> 64			> 64	> 100			
CNC(=O)c1nc([N+](=O)[O-])cn1Cc1ccc(OC(F)(F)F)cc1 [Compound 14a, N-methyl-4-nitro-1-(4-(trifluoromethoxy)benzyl)-1H-imidazole-2-carboxamide]	3.4	3.39	>29	30	30.2				> 64						> 100	> 100
CN(C)C(=O)c1nc([N+](=O)[O-])cn1Cc1ccc(OC(F)(F)F)cc1 [Compound 14b, N,N-dimethyl-4-nitro-1-(4-(trifluoromethoxy)benzyl)-1H-imidazole-2-carboxamide]	2.7	2.69	>37	19	19.1				64 (≈ 179 µM)			64 (≈ 179 µM)			> 100	> 100
NNC(=O)c1nc([N+](=O)[O-])cn1Cc1ccc(OC(F)(F)F)cc1 [Compound 14e, 4-nitro-1-(4-(trifluoromethoxy)benzyl)-1H-imidazole-2-carbohydrazide]	7.5	7.59	>13	45	44.7				> 64			> 64			> 100	> 100
O=C(NCc1ccc(F)cc1)c1ncc[nH]1 [Compound 17, N-(4-fluorobenzyl)-1H-imidazole-2-carboxamide]	> 50			> 50						> 20		> 64				
NC(=O)c1nccn1Cc1ccc(OC(F)(F)F)cc1 [Compound 18, 1-(4-(trifluoromethoxy)benzyl)-1H-imidazole-2-carboxamide]	> 50			> 50								> 64				
Nc1c[nH]c(C(=O)NCc2ccc(F)cc2)n1 [Compound 20, 4-amino-N-(4-fluorobenzyl)-1H-imidazole-2-carboxamide]	> 50			> 50						> 20		> 64				
